Values after ≈ are worked out from the molar mass of the structure shown. Where a name gives a salt, the structure may show the parent alone.
Experiments:
[1] = initial development experiments (BCS classification, solubility, permeability); assay type: physicochemical; details: free base
[2] = humidity stress at 40° C./75% relative humidity; assay type: physicochemical; details: about 7 days
[3] = Dynamic Vapor Sorption (DVS) hygroscopicity; assay type: physicochemical; details: for XRPD analysis of the post DVS sample: physical form after DVS cycle; for hygroscopicity, European Pharmacopoeia classification: weight increase at 80% RH (25° C.)
Procedure: As used herein “the European Pharmacopoeia classification” is a system whereby a chemical Compound 1s classified based on hygroscopicity. The classification is determined according to Table 2: [table] Dynamic Vapor Sorption (DVS) was performed using a Hiden Analytical Instruments IGAsorp Vapor Sorption Balance. Approximately 30 mg of sample was placed into a wire mesh vapor sorption balance pan, loaded into the IGAsorp vapor sorption balance, and held at 25° C.±0.1° C. The sample was subjected to a step profile from 0 to 90% RH at 10% increments, followed by desorption from […] to 0% RH at 10% increments. The equilibrium criterion was set to 99.0% step completion within a minimum of 60 minutes and a maximum of 5 hours for each increment. The weight change during the sorption cycle was monitored, allowing for the hygroscopic nature of the sample to be determined. The data collection interval was in seconds.

[4] = aqueous equilibrium solubility by HPLC; assay type: physicochemical; details: for pH of the solubility solution: checked with pH paper; for solubility compared to malate salt of Compound 1: comparison in words; for aqueous solubility: distilled water, ambient temperature (about 25° C.), 24 hours, HPLC
Procedure: The HPLC method used to determine aqueous equilibrium solubility is outlined in Table 32.
HPLC solubility determination about 5 mg of each salt was added to a vial with distilled water (1 mL). These were stirred at ambient temperature (about 25° C.) for 24 hours. The solution was isolated by filtration through a 0.2 μm PTFE filter and was analyzed by HPLC for concentration. The pH of the solutions was checked with pH paper.

[5] = both forms of Compound 1 (S)-malate; comparison value, source not stated; cited from earlier work
[6] = listed as Compound 1 isethionate monohydrate

In the case of COc1cc2nccc(Oc3ccc(NC(=O)C4(C(=O)Nc5ccc(F)cc5)CC4)cc3)c2cc1OC [Compound 1, N-{4-[(6,7-dimethoxyquinolin-4-yl)oxy]phenyl}-N′-(4-fluorophenyl) cyclopropane-1,1-dicarboxamide], the BCS class [1] is reported as “BCS class II”, the “solubility” value ([1]; in water) is reported as “low solubility” and the “% Weight Change” value [2] is reported as −0.94%. For the same compound, the “XRPD after humidity stressing” value [2] was “Form 1”.

For COc1cc2nccc(Oc3ccc(NC(=O)C4(C(=O)Nc5ccc(F)cc5)CC4)cc3)c2cc1OC [Form 3, N-{4-[(6,7-dimethoxyquinolin-4-yl)oxy]phenyl}-N′-(4-fluorophenyl) cyclopropane-1,1-dicarboxamide], the “XRPD after humidity stressing” value [2] was “no form change” and the “weight loss after humidity stressing” value [2] was 43.17%.

In the case of COc1cc2nccc(Oc3ccc(NC(=O)C4(C(=O)Nc5ccc(F)cc5)CC4)cc3)c2cc1OC [Form 27, N-{4-[(6,7-dimethoxyquinolin-4-yl)oxy]phenyl}-N′-(4-fluorophenyl) cyclopropane-1,1-dicarboxamide], the “plateau of water content between 10-50% RH” value ([3]; DVS isotherm, 1 mol. eq.) is reported as “about 3.0±0.1 % w/w”, the “total weight gain between 20% RH and 80% RH” value ([3]; DVS, 25° C.) is reported as “about 2.4 % w/w” and the “XRPD analysis of the post DVS sample” value [3] is reported as “remained unchanged”. For the same compound, the “hygroscopicity, European Pharmacopoeia classification” value [3, 6] was “hygroscopic”, the “pH of the solubility solution” value [4, 6] was “about 2” and the “solubility compared to malate salt of Compound 1” value [4, 6] was “much higher solubility”. It also gave an aqueous solubility [4, 6] of 195 µg/mL (≈ 389 µM).

With COc1cc2nccc(Oc3ccc(NC(=O)C4(C(=O)Nc5ccc(F)cc5)CC4)cc3)c2cc1OC [Form 20, N-{4-[(6,7-dimethoxyquinolin-4-yl)oxy]phenyl}-N′-(4-fluorophenyl) cyclopropane-1,1-dicarboxamide] the “total weight gain between 0% RH and 80% RH” value ([3]; DVS, 25° C., listed as Compound 1 glutarate) was 0.08 % w/w, the “hygroscopicity, European Pharmacopoeia classification” value ([3]; listed as Compound 1 glutarate) was “non-hygroscopic” and the “pH of the solubility solution” value ([4]; listed as Compound 1 glutarate) was “about 3”. The aqueous solubility ([4]; listed as Compound 1 glutarate) was 16 µg/mL (≈ 31.9 µM).

For COc1cc2nccc(Oc3ccc(NC(=O)C4(C(=O)Nc5ccc(F)cc5)CC4)cc3)c2cc1OC [Compound 1 (S)-malate, S-malate salt of N-{4-[(6,7-dimethoxyquinolin-4-yl)oxy]phenyl}-N′-(4-fluorophenyl) cyclopropane-1,1-dicarboxamide], the “hygroscopicity weight gain of comparator” value [5] is listed as “about 0.4 % w/w”.

With COc1cc2nccc(Oc3ccc(NC(=O)C4(C(=O)Nc5ccc(F)cc5)CC4)cc3)c2cc1OC [Form 14, N-{4-[(6,7-dimethoxyquinolin-4-yl)oxy]phenyl}-N′-(4-fluorophenyl) cyclopropane-1,1-dicarboxamide] the “total weight gain between 0% RH and 80% RH” value ([3]; DVS, 25° C., listed as Compound 1 pyruvate) was 0.10 % w/w, the “XRPD analysis of the post DVS sample” value [3] was “remained unchanged” and the “hygroscopicity, European Pharmacopoeia classification” value ([3]; listed as Compound 1 pyruvate) was “non-hygroscopic”. For the same compound, the “pH of the solubility solution” value ([4]; listed as Compound 1 pyruvate) was “about 3”, the “solubility compared to malate salt of Compound 1” value ([4]; listed as Compound 1 pyruvate) was “higher solubility” and the aqueous solubility ([4]; listed as Compound 1 pyruvate) was “about 0.133 mg/mL”.

Reference: patent US11731941B2 (Exelixis, Inc., priority 2017, dated 2023)
